BindingDB's records for doi:10.7270/Q2S180TW (Burnham Center For Chemical Genomics, 2008)

Biological target: Heat shock 70 kDa protein 1A (Homo sapiens, UniProt V9GZ37)
Test: small molecules displacing fluorescent ligand from Hsp70 – biochemical, fluorescence polarization, primary screen (AID 583)
Conditions: pH 7; 23 °C

Sequence of Heat shock 70 kDa protein 1A (V9GZ37 whole entry): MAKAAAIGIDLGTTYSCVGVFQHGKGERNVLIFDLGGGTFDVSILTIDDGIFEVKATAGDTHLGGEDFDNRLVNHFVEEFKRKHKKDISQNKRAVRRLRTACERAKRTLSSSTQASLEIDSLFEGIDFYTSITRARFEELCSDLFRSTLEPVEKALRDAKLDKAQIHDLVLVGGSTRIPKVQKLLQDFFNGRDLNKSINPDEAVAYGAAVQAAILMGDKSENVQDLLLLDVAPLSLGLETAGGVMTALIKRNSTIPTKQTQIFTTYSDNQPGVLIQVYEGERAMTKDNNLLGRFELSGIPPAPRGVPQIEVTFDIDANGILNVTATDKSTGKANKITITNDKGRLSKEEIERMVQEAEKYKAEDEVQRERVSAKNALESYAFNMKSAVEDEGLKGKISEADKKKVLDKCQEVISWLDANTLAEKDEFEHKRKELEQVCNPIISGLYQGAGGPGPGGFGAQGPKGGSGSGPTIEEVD

IC50	SMILES
100 µM	CC(=O)N1CCC2(CC1)c1c(n[nH]c1C)OC(=N)C2C#N (configuration not stated) [6-azanyl-1'-ethanoyl-3-methyl-spiro[2H-pyrano[2,3-c]pyrazole-4,4'-piperidine]-5-carbonitrile]
21.7 µM	C=c1[nH]n(-c2cccc(C(=O)O)c2)c(=O)c1=CC=Cc1ccco1 [SMR000113614]
